In PMC2991631 (Biochemical pharmacology, 2010):
Like-named read-outs stand apart in the source and are kept apart here.

How the values were obtained:
hCE1 (CES1) = details: hCE1 relative to hiCE; cited from earlier work
[1] = tested on: carboxylesterases (hiCE, hCE1) in human liver microsomal extracts; type: biochemical; details: for CPT-11 hydrolysis + 876 / Loss in CPT-11 hydrolysis + 876 / Loss in CPT-11 hydrolysis + 876 [%]: 10μM 876
[2] = tested on: carboxylesterases (CE) in human liver microsomal extracts; test: CE activity; type: biochemical; details: 10μM 876

## CCc1c2c(nc3ccc(OC(=O)N4CCC(N5CCCCC5)CC4)cc13)-c1cc3c(c(=O)n1C2)COC(=O)[C@]3(O)CC [CPT-11, 7-ethyl-10-[4-(1-piperidino)-1-piperidino]carbonyloxycamptothecin]
hCE1 (CES1)
  Km for CPT-11, hCE1 higher than hiCE: ~ 25 fold

## O=S(=O)(Nc1c(F)c(F)c(NS(=O)(=O)c2ccc(Br)cc2)c(F)c1F)c1ccc(Br)cc1 [compound 876, N,N'-(2,3,5,6-tetrafluoro-1,4-phenylene)bis(4-bromobenzenesulfonamide)]
[1]; liver microsomal extract HG03
  CPT-11 hydrolysis + 876: 29.6 ± 0.64 pmol/mg/h
  Loss in CPT-11 hydrolysis + 876: 14.7 pmol/mg/h
  Loss in CPT-11 hydrolysis + 876 [%]: 33.1%
[1]; liver microsomal extract HG74
  CPT-11 hydrolysis + 876: 25.8 ± 1.1 pmol/mg/h
  Loss in CPT-11 hydrolysis + 876: 14.1 pmol/mg/h
  Loss in CPT-11 hydrolysis + 876 [%]: 35.3%
[1]; liver microsomal extract HG93
  CPT-11 hydrolysis + 876: 18.2 ± 0.42 pmol/mg/h
  Loss in CPT-11 hydrolysis + 876: 12.4 pmol/mg/h
  Loss in CPT-11 hydrolysis + 876 [%]: 40.5%
[1]; liver microsomal extract HG95
  CPT-11 hydrolysis + 876: 16.2 ± 0.21 pmol/mg/h
  Loss in CPT-11 hydrolysis + 876: 8.30 pmol/mg/h
  Loss in CPT-11 hydrolysis + 876 [%]: 33.9%
[1]; liver microsomal extract HG103
  CPT-11 hydrolysis + 876: 19.4 ± 0.14 pmol/mg/h
  Loss in CPT-11 hydrolysis + 876: 13.2 pmol/mg/h
  Loss in CPT-11 hydrolysis + 876 [%]: 40.1%
[1]; liver microsomal extract HH13
  CPT-11 hydrolysis + 876: 18.5 ± 0.14 pmol/mg/h
  Loss in CPT-11 hydrolysis + 876: 15.4 pmol/mg/h
  Loss in CPT-11 hydrolysis + 876 [%]: 45.4%
[1]; liver microsomal extract HH61
  CPT-11 hydrolysis + 876: 13.4 ± 0.07 pmol/mg/h
  Loss in CPT-11 hydrolysis + 876: 8.80 pmol/mg/h
  Loss in CPT-11 hydrolysis + 876 [%]: 39.7%
[1]; liver microsomal extract HH74
  CPT-11 hydrolysis + 876: 7.14 ± 0.23 pmol/mg/h
  Loss in CPT-11 hydrolysis + 876: 8.22 pmol/mg/h
  Loss in CPT-11 hydrolysis + 876 [%]: 53.5%
[1]; liver microsomal extract HK37
  CPT-11 hydrolysis + 876: 17.0 ± 0.57 pmol/mg/h
  Loss in CPT-11 hydrolysis + 876: 18.4 pmol/mg/h
  Loss in CPT-11 hydrolysis + 876 [%]: 51.9%
[1]; liver microsomal extract SD003
  CPT-11 hydrolysis + 876: 34.2 ± 0.92 pmol/mg/h
  Loss in CPT-11 hydrolysis + 876: 20.5 pmol/mg/h
  Loss in CPT-11 hydrolysis + 876 [%]: 37.5%
[1]; liver microsomal extract SD004
  CPT-11 hydrolysis + 876: 19.3 ± 1.0 pmol/mg/h
  Loss in CPT-11 hydrolysis + 876: 14.6 pmol/mg/h
  Loss in CPT-11 hydrolysis + 876 [%]: 43.0%
[1]; liver microsomal extract SD104
  CPT-11 hydrolysis + 876: 13.7 ± 0.07 pmol/mg/h
  Loss in CPT-11 hydrolysis + 876: 5.80 pmol/mg/h
  Loss in CPT-11 hydrolysis + 876 [%]: 29.8%
[1]; liver microsomal extract SD120
  CPT-11 hydrolysis + 876: 18.5 ± 0.14 pmol/mg/h
[1]; liver microsomal extract SD123
  CPT-11 hydrolysis + 876: 17 ± 0.14 pmol/mg/h
  Loss in CPT-11 hydrolysis + 876: 13.0 pmol/mg/h
  Loss in CPT-11 hydrolysis + 876 [%]: 43.2%
[1]; liver microsomal extract SD124
  CPT-11 hydrolysis + 876: 15.8 ± 0.28 pmol/mg/h
  Loss in CPT-11 hydrolysis + 876: 11.3 pmol/mg/h
  Loss in CPT-11 hydrolysis + 876 [%]: 41.7%
[1]; liver microsomal extract SD128
  CPT-11 hydrolysis + 876: 16.5 ± 0.35 pmol/mg/h
  Loss in CPT-11 hydrolysis + 876: 13.1 pmol/mg/h
  Loss in CPT-11 hydrolysis + 876 [%]: 44.3%
[1]; liver microsomal extract SD132
  CPT-11 hydrolysis + 876: 14.1 ± 0.50 pmol/mg/h
  Loss in CPT-11 hydrolysis + 876: 12.6 pmol/mg/h
  Loss in CPT-11 hydrolysis + 876 [%]: 47.2%
[1]; liver microsomal extract SD134
  CPT-11 hydrolysis + 876: 8.49 ± 0.18 pmol/mg/h
  Loss in CPT-11 hydrolysis + 876: 8.96 pmol/mg/h
  Loss in CPT-11 hydrolysis + 876 [%]: 51.3%
[1]; liver microsomal extract SD136
  CPT-11 hydrolysis + 876: 33.6 ± 0.64 pmol/mg/h
  Loss in CPT-11 hydrolysis + 876: 21.8 pmol/mg/h
  Loss in CPT-11 hydrolysis + 876 [%]: 39.3%
[1]; selective hiCE inhibitor 876
  effect on CPT-11 activation in liver microsomal samples: unable to reduce the levels of CPT-11 activation in liver microsomal samples to zero
[2]; liver microsomal extract HG03
  CE activity + 876: 3759 ± 84 nmol/mg/min
  Loss in CE activity + 876: 2816 nmol/mg/min
  Loss in CE activity + 876 [%]: 42.8%
[2]; liver microsomal extract HG74
  CE activity + 876: 4341 ± 152 nmol/mg/min
  Loss in CE activity + 876: 2866 nmol/mg/min
  Loss in CE activity + 876 [%]: 39.8%
[2]; liver microsomal extract HG93
  CE activity + 876: 2938 ± 87 nmol/mg/min
  Loss in CE activity + 876: 1790 nmol/mg/min
  Loss in CE activity + 876 [%]: 37.9%
[2]; liver microsomal extract HG95
  CE activity + 876: 3285 ± 242 nmol/mg/min
  Loss in CE activity + 876: 1840 nmol/mg/min
  Loss in CE activity + 876 [%]: 35.9%
[2]; liver microsomal extract HG103
  CE activity + 876: 2224 ± 202 nmol/mg/min
  Loss in CE activity + 876: 1482 nmol/mg/min
  Loss in CE activity + 876 [%]: 40.0%
[2]; liver microsomal extract HH13
  CE activity + 876: 672 ± 47 nmol/mg/min
  Loss in CE activity + 876: 221 nmol/mg/min
  Loss in CE activity + 876 [%]: 24.8%
[2]; liver microsomal extract HH61
  CE activity + 876: 3925 ± 125 nmol/mg/min
  Loss in CE activity + 876: 1953 nmol/mg/min
  Loss in CE activity + 876 [%]: 33.2%
[2]; liver microsomal extract HH74
  CE activity + 876: 2235 ± 203 nmol/mg/min
  Loss in CE activity + 876: 1471 nmol/mg/min
  Loss in CE activity + 876 [%]: 39.7%
[2]; liver microsomal extract HK37
  CE activity + 876: 4052 ± 120 nmol/mg/min
  Loss in CE activity + 876: 2280 nmol/mg/min
  Loss in CE activity + 876 [%]: 36%
[2]; liver microsomal extract SD003
  CE activity + 876: 3434 ± 224 nmol/mg/min
  Loss in CE activity + 876: 1809 nmol/mg/min
  Loss in CE activity + 876 [%]: 34.5%
[2]; liver microsomal extract SD004
  CE activity + 876: 3460 ± 234 nmol/mg/min
  Loss in CE activity + 876: 2162 nmol/mg/min
  Loss in CE activity + 876 [%]: 38.5%
[2]; liver microsomal extract SD104
  CE activity + 876: 3493 ± 146 nmol/mg/min
  Loss in CE activity + 876: 1895 nmol/mg/min
  Loss in CE activity + 876 [%]: 35.2%
[2]; liver microsomal extract SD120
  CE activity + 876: 2610 ± 102 nmol/mg/min
  Loss in CE activity + 876: 1885 nmol/mg/min
  Loss in CE activity + 876 [%]: 41.9%
[2]; liver microsomal extract SD123
  CE activity + 876: 3874 ± 101 nmol/mg/min
  Loss in CE activity + 876: 2071 nmol/mg/min
  Loss in CE activity + 876 [%]: 34.8%
[2]; liver microsomal extract SD124
  CE activity + 876: 1997 ± 189 nmol/mg/min
  Loss in CE activity + 876: 1411 nmol/mg/min
  Loss in CE activity + 876 [%]: 41.4%
[2]; liver microsomal extract SD128
  CE activity + 876: 4144 ± 401 nmol/mg/min
  Loss in CE activity + 876: 2169 nmol/mg/min
  Loss in CE activity + 876 [%]: 34.4%
[2]; liver microsomal extract SD132
  CE activity + 876: 5018 ± 209 nmol/mg/min
  Loss in CE activity + 876: 3176 nmol/mg/min
  Loss in CE activity + 876 [%]: 38.8%
[2]; liver microsomal extract SD134
  CE activity + 876: 345 ± 28 nmol/mg/min
  Loss in CE activity + 876: 197 nmol/mg/min
  Loss in CE activity + 876 [%]: 36.4%
[2]; liver microsomal extract SD136
  CE activity + 876: 1719 ± 243 nmol/mg/min
  Loss in CE activity + 876: 1477 nmol/mg/min
  Loss in CE activity + 876 [%]: 46.2%
